Experimental data: article PMC12703733, “Probing Guanidino Pendant or Bridged Groups in Cyclic Antimicrobial Peptides Derived from Temporin L: A Strategy to Improve Efficacy against Gram-Negative Bacteria” (Journal of Medicinal Chemistry, 2025)
≈ marks a conversion by molar mass, not a printed value. Like-named read-outs stand apart in the source and are kept apart here. Bridge positions count the residues as written; N and C are the ends. Square brackets hold non-standard residues; d marks the D form. Peptide text beside a SMILES is read from it. Phe(4-guanidino) = N=C(N)Nc1ccc(C[C@H](N)C(=O)O)cc1

How the values were obtained:
[1] = type: cell-based; settings: Cell viability (%)
Method: For the evaluation of peptides’ cytotoxicity, the human immortalized keratinocytes (HaCaT cells), purchased from AddexBio (San Diego, CA, USA), and BEAS-2B were used. HaCaT cells were cultured in Dulbecco’s modified Eagle’s medium supplemented with 4 mM glutamine (DMEM), 10% heat-inactivated fetal bovine serum (FBS), and 0.1 mg/mL of penicillin and streptomycin, at 37 °C and 5% CO2. BEAS-2B cells were cultured in RPMI, supplemented with 2 mM glutamine (DMEM), 10% heat-inactivated fetal bovine serum (FBS), 1 mM sodium pyruvate, and 0.1 mg/mL of penicillin and streptomycin, at 37 °C and 5% CO2. Cytotoxicity was tested in vitro using a colorimetric assay that relies on the intracellular reduction of the yellow 3-(4,5-dimethylthiazol-2-yl)-2,5-diphenyltetrazolium bromide salt (MTT) by mitochondrial dehydrogenases of metabolically active cells in formazan crystals (purple). About 4 × 10^4 HaCaT and BEAS-2B cells, suspended in DMEM supplemented with 2% FBS, were plated in triplicate wells of a 96-well microtiter plate. The plate was incubated overnight at 37 °C and 5% CO2. Then, the cells were treated with different concentrations of the peptide (from 100 to 3.12 μM) in a fresh serum-free medium for 2 h and for a longer time (24 h). Following peptide treatment, the medium was removed, and MTT (0.5 mg/mL) solution in Hank’s buffer (136 mM NaCl, 4.2 mM Na2HPO4, 4.4 mM KH2PO4, 5.4 mM KCl, 4.1 mM NaHCO3, pH 7.2, supplemented with 20 mM D-glucose) was added to each well of the plate, that was then incubated for 4 h at 37 °C and 5% CO2. The purple formazan crystals were dissolved using acidified 2-propanol and a microplate reader (Infinite M200; Tecan, Salzburg, Austria) was used to measure the absorbance of each well at 570 nm. The percentage of cell viability was calculated compared to the control, which consisted of cells without any peptide treatment (corresponding to 100% viability) and all data represent the mean of three independent experiments ± SEM.

[2] = test system: human keratinocytes (HaCaT cells); type: cell-based; settings: human, 24 h
How it was run: (§1)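 Cells were plated at about 4 × 10^4/well in 2% FBS, then exposed to peptide at 100–3.12 μM in serum-free medium for 2 h or 24 h. Viability was measured by MTT reduction (0.5 mg/mL, 4 h, absorbance 570 nm) relative to untreated cells, as the mean ± SEM of three experiments.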

[3] = type: cell-based, human; settings: human
How it was run: as §1

in vitro = in vitro ADME; settings: isolated enzyme chymotrypsin, pH 7.8
Method: Peptide stability was evaluated by modifying previously described procedures. , The assays were performed in human serum and in the presence of proteolytic enzymes such as trypsin and chymotrypsin. For human serum stability, 2 mM peptide stock solutions were prepared in water and mixed with human serum (from male AB plasma, USA origin, sterile-filtered, Merck/Sigma-Aldrich, USA) to obtain a final concentration of 200 μM [human plasma/stock solution (9:1, v/v)]. The mixtures were incubated at 37 ± 1 °C, and 50 μL aliquots were taken at predetermined time intervals (0, 1, 2, 4, 8, and 24 h). Protease activity was quenched by adding 100 μL of acetonitrile (MeCN). The resulting cloudy suspensions were cooled to 4 °C for 30 min and centrifugated at 12,000 rpm for 10 min to remove the serum proteins. Then, the supernatants were analyzed by analytical HPLC (Shimadzu Nexera Liquid Chromatograph LC-30AD) which was equipped with a Phenomenex Kinetex reversed-phase column (C18, 5 μm, 100 Å, 150 mm × 4.6 mm) with a flow rate of 1 mL/min using a gradient of MeCN (0.1% TFA) in water (0.1% TFA), from 10 to 70% over 15 min, and UV detection at 220 nm. For enzyme stability, each peptide peptide (200 μM) was incubated with trypsin (0.5 μM) in PBS 1× (pH 7.2) or with chymotrypsin (0.005 μM) in Tris–HCl (100 mM, pH 7.8). Samples (50 μL) were collected at 0, 1, 2, 4, and 24 h, quenched with 0.5% TFA in water, and analyzed by HPLC under chromatographic conditions as described above. All experiments were conducted in triplicate. The percentage of intact peptides at each time point was determined by integrating the corresponding HPLC peak areas.

circular dichroism = settings: water; pH ns; 25 °C; 150 uM
S. aureus ATCC 25923 [4] = type: cell-based
Method: The ability of peptides to alter the bacterial membrane permeability of planktonic cells of S. aureus ATCC 25923 and P. aeruginosa ATCC 27853 was determined by the Sytox Green assay. Approximately 1 × 10^6 cells in 100 μL of PBS were combined with 1 μM Sytox Green in the dark for 5 min. The fluorescence intensity was monitored using a microplate reader (Infinite M200, Tecan), with excitation and emission at λ = 485 and 535 nm, respectively. Peptides were added (time = 0) at three different concentrations (i.e., 3.12, 6.25, and 12.5 μM). Increase in the fluorescence intensity is due to the binding of the dye to intracellular nucleic acids. Controls consisted of cells that were not exposed to the peptides. The values correspond to one representative experiment out of three independent experiments.

S. aureus ATCC 25923 [5] = assay: microbe, parasite or virus in culture; type: cell-based; settings: ATCC 25923
How it was run: (§2)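 MICs were taken as three identical readings from four independent experiments, using mid-log cells at 2 × 10^6 cell/mL in Mueller Hinton medium incubated at 37 °C.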

S. agalactiae ATCC 27591 = assay: microbe, parasite or virus in culture; type: cell-based; settings: ATCC 27591
How it was run: as §2

P. aeruginosa ATCC 27853 = assay: microbe, parasite or virus in culture; type: cell-based; settings: ATCC 27853
How it was run: as §2

E. coli D21 = assay: microbe, parasite or virus in culture; type: cell-based; settings: D21
How it was run: as §2

E. coli ATCC 25922 = assay: microbe, parasite or virus in culture; type: cell-based; settings: ATCC 25922
How it was run: as §2

A. baumannii ATCC 19606 = assay: microbe, parasite or virus in culture; type: cell-based; settings: ATCC 19606
How it was run: as §2

B. megaterium BM11 = assay: microbe, parasite or virus in culture; type: cell-based; settings: BM11
How it was run: as §2

E. faecalis ATCC 29212 = assay: microbe, parasite or virus in culture; type: cell-based; settings: ATCC 29212
How it was run: as §2

[6] = test system: S. epidermidis ATCC 12228; assay: microbe, parasite or virus in culture; type: cell-based; settings: ATCC 12228
How it was run: as §2

CC[C@H](C)[C@H](NC(=O)[C@H](CCCNC(=N)N)NC(=O)[C@H]1CCC(=O)NCCCC[C@H](NC(=O)[C@H](Cc2ccccc2)NC(=O)[C@H](Cc2c[nH]c3ccccc23)NC(=O)[C@@H]2CCCN2C(=O)[C@@H](NC(=O)[C@@H](N)Cc2ccc(NC(=N)N)cc2)C(C)C)C(=O)N[C@@H](CCCCN)C(=O)N[C@@H](Cc2ccccc2)C(=O)N[C@H](CC(C)C)C(=O)N1)C(=O)N[C@@H](CC(C)C)C(N)=O [Peptide 6, (p-guanidino)FVPWF[KKFle]RIL] (H-[Phe(4-guanidino)]VPWFKKF[dL][dE]RIL-NH2; lactam 6-10) gave a viability at 2 h, 3.12 µM [1] of 111%, a viability at 2 h, 6.25 µM [1] of 119% and a viability at 2 h, 12.5 µM [1] of 114%. It also gave a viability at 2 h, 25 µM [1] of 100%, a viability at 2 h, 50 µM [1] of 30% and a viability at 24 h, 3.12 µM [1] of 104%. It also gave a viability at 24 h, 6.25 µM [1] of 111%, a viability at 24 h, 12.5 µM [1] of 111% and a viability at 24 h, 25 µM [1] of 107%. The viability at 24 h, 50 µM [1] was 33%, the viability at 24 h, 100 µM [1] was 4% and the CC50 [2] was 59.6 µM. For the same molecule, the “Cell viability (%)” value ([2]; 50 µM) was 81 ± 4%, the CC50 at 24 h ([3]; CC50) was over 50 µM and the viability at 2 h, 3.12 µM ([3]; Cell viability (%)) was 102%. The viability at 2 h, 6.25 µM ([3]; Cell viability (%)) was 101%, the viability at 2 h, 12.5 µM ([3]; Cell viability (%)) was 101% and the viability at 2 h, 25 µM ([3]; Cell viability (%)) was 101%. It also gave a viability at 2 h, 100 µM ([3]; Cell viability (%)) of 13%, a viability at 24 h, 3.12 µM ([3]; Cell viability (%)) of 100 ± 2% and a viability at 24 h, 6.25 µM ([3]; Cell viability (%)) of 93 ± 2%. The viability at 24 h, 12.5 µM ([3]; Cell viability (%)) was 86 ± 4%, the viability at 24 h, 25 µM ([3]; Cell viability (%)) was 86 ± 2% and the viability at 24 h, 50 µM ([3]; Cell viability (%)) was over 70%. The viability at 24 h, 100 µM ([3]; Cell viability (%)) was 2 ± 1%, the remaining at 4 h, 200 μM (in vitro) was about 20% and the helicity (circular dichroism) was 16%. For the same molecule, the “membrane permeabilization, Sytox Green fluorescence (in words)” value (S. aureus ATCC 25923 [4]) was “lower effect”, the MIC (S. aureus ATCC 25923 [5]) was 25 µM (≈ 44 µg/mL) and the MIC (S. agalactiae ATCC 27591) was 1.56 µM (≈ 2.75 µg/mL). For the same molecule, the MIC (P. aeruginosa ATCC 27853) was 25 µM (≈ 44 µg/mL), the MIC (E. coli D21) was 3.12 µM (≈ 5.49 µg/mL) and the MIC (E. coli ATCC 25922) was 6.25 µM (≈ 11 µg/mL). It also gave an MIC (A. baumannii ATCC 19606) of 3.12 µM (≈ 5.49 µg/mL), an MIC (B. megaterium BM11) of 0.78 µM (≈ 1.37 µg/mL) and an MIC (E. faecalis ATCC 29212) of 12.5 µM (≈ 22 µg/mL). The MIC [6] was 3.12 µM (≈ 5.49 µg/mL).
